Source: patent US20240335433A1, “CELL CYCLE SYNCHRONIZATION PROCESS” (priority 2023, published 2024)
Entries after “also recorded” stand apart in the source; their conditions may differ.

Legend:
[1] = Removal of thymidine analogues from circulation (S phase labelling window after injection); conditions: mouse, in vivo
Protocol: These two molecules become stably incorporated into DNA during DNA replication (S phase). When either is injected into mice, it labels at high levels only those tissue cells actively replicating DNA (in S phase) at that time. Because these drugs are both rapidly removed from circulation, only cells actively replicating DNA within 1 hour of injection are labelled. If the second drug is introduced into the same animal at a later time, thereafter, it too will label only those cells in S phase at the time of the second injection. The tissues are then collected and stained for BRDU and EDU with separate fluorescence tags. The intensity of each marker is then determined by fluorescent image analysis. Fortunately, it is the characteristic of dividing cells that these two labels are incorporated most efficiently into nuclei of cells near the middle of S phase. When the two injections are separated by the length of the cell cycle, therefore, both markers will be stained at maximal levels in the same cell. The cell cycle characteristics of a tissue can then be determined by comparing results following injections separated by increasing lengths of time.

[2] = tested on: mouse gut crypt cells; assay: Cell cycle synchrony of gut crypt cells after repeated injections (EDU/BRDU incorporation, cyclin D1 staining); conditions: for ability to induce cell cycle synchrony in the mouse gut: EDU: high concentrations; for cell cycle synchrony of gut cells: four 10-hour injections separated by 40 hours without injection, repeated four times
Protocol: All experiments were performed according to separate protocols approved by IACUC committees at the following institutions: the Northeast Ohio Medical University, and Case Western Reserve University. Studies of cell cycle length were approved by the IACUC of the Cleveland State University. Recall that the proliferating cells of the small intestine are located near the basement membrane in regions termed the crypt. Cells in this region are the only cells that proliferate in the gut, with the exception of rare proliferation of support cells in the matrix of the villi. Epithelial cells in the crypt region are essentially all proliferating all the time. Consequently, they are actively labeled by a pulse of EDU to label cells in S phase. Cells not labeled with EDU are in G2-G1 phases, and are labeled with cyclin D1 (FIG. 6).
Finally, the tissue was analyzed a full 10 hours following the final topotecan injection.
As a control to the above studies, the tissues described above were stained for the expression of cyclin D1. […] Thus, upon entry into S phase the level of cyclin D1 is always reduced to near zero. It returns to high levels of expression upon entry into G2 phase, but only in cells that are actively proliferating. Therefore, an actively proliferating cell would incorporate EDU if it were in S phase, and it would express cyclin D1 if it were in any other cell cycle phase. If all the cells of a tissue either incorporate EDU or express high cyclin D1 levels, all the cells of the tissue are actively proliferating. […] Further analysis was performed at 2 hour intervals from 0 hours to 10 hours following the final topotecan injection.
Separate animals received injections of 0.20 ml of topotecan at 0.33 mg/ml, 0.20 mg/ml, or 0.12 ml of 0.20 mg/ml topotecan. Each animal was given four 10-hour injections of a given concentration, separated by 40 hours without injection; repeated four times. At 5 hours following the final topotecan injection, BRDU was injected into the animals to identify cells in S phase between the timed topotecan injection. Animals injected with BRDU were then injected again 5 hours later with EDU (10 hours after the final topotecan injection), to identify cells in S phase at the time the next successive topotecan injection would have taken place. 50 min following the EDU injection tissues were collected and analyzed.

[3] = tested on: Lewis lung carcinoma; assay: Lewis lung carcinoma tumor growth in C57Bl/6 mice; type: in vivo, mouse; conditions: for inhibition of Lewis lung carcinoma tumor growth: Cell Cycle Therapy, IP injections every 10 hours 40 min with rest periods
Protocol: The Lewis Lung Carcinoma model is a commonly used tumor model for assessment of general anti-tumor activity. The cells can be grown in culture and then introduced underneath the skin on the back of syngeneic […] mice. When 1-2 million cells are introduced, tumors begin to form within 6-10 days. This is an extremely aggressive tumor, with doubling times of 3 days or less. […] In this study 2 million cells were injected underneath the skin on the mid back of the mice. The tumor was measured with calipers to determine its size. To confirm size measurements, the tumor was excised in total and weighed at the end of the experiment. All anti-tumor drug injections were intraperitoneal (IP). Mice in the range of 8-16 weeks of age were utilized, but within a given experiment, mice within the same age range were generally used for comparison. All studies were conducted under standard guidelines, and conformed to the protocol approved the Case Western Reserve and the Northeast Ohio Medical University IACUC. Weight loss was measured to determine animal health, with loss of over 20% an indication for experimental termination. Similarly, tumors were not allowed to grow beyond 15% of body weight.
The ability of a treatment regimen to block tumor growth was determined with injections of topotecan, either alone or in combination with EDU. […] In this case, the increase of tumor size was measured. […] In general, EDU injections of 0.2 ml of 9 mg/ml drug (in phosphate buffered saline) were performed. These injections involved intermittent rest periods, generally 1-2 rest periods between 4-5 EDU injections. To increase the effectiveness of EDU injections, two such injections were at times performed within a 20 min period every 10 hours 40 min.
When higher volumes were injected (0.23 ml) the rest times were increased. […] With 0.2 ml injections of topotecan ([…]), three injections were often followed by 4-5 rest periods (FIGS. 12 and 13A-C).
EDU was always injected at 9 mg/ml (0.2 ml per injection). 1-3 such injections were followed immediately, or after 1-5 rest periods, by 1-4 injections of topotecan (0.18 ml, 0.2 mg/ml).
The experiment involved 24 C57Bl/6 mice, each of which received injections of 2 million Lewis lung carcinoma cells under the skin on their backs. Three days later these animals were randomly divided into three groups. The first group received three injections of topotecan separated by the length of the cell cycle (10 hours 40 min). The three-injection set was then followed by a long rest period precisely equal to 5 cell cycle lengths; and the process was repeated (FIG. 14C). For comparison, another set of mice received a single injection at the same time each day. […] All topotecan injections were identical (0.2 ml of 0.18 mg/ml topotecan). As a control, 8 mice received 0.2 ml injections of phosphate buffered saline (PBS) at the same time as the cell cycle group. […]

[4] = Protocol: Extensive studies were conducted to determine the optimal spacing between injections for C57Bl/6 mice, as differences between mouse strains might exist. […] After the 9 injections spaced apart by these times were complete, the animals were weighed over the next 10 days to determine their overall health. […]
[5] = tested on: NIH3T3; assay: Cell cycle specific toxicity in NIH3T3 cultures (clonal survival after brief drug treatment); type: cell-based
Protocol: The examples were performed on the contact inhibited cell line, NIH3T3. […] They must be cultured so as to never reach confluence; since, like normal cells, they stop growing when becoming confluent on the culture plate. Thus, they are plated at 60,000 to 150,000 cells per 35 mm plate, and transferred to a new plate every 2-3 days. The cells must also be limited in passage number to ensure their growth rate is rapid. The definition of low passage cells will vary from one lab to another, and the actual cell cycle length of these cells may vary, but it is critical that from one experiment to another the length of the cell cycle remains constant.
Constant killing over a broad concentration range: The drug to be tested is diluted across a broad concentration range, and placed on separate actively proliferating NIH3T3 cultures for two hours. […] The plates are then fixed, stained with crystal violet, and the number of colonies counted and compared to a mock treated culture. […] Cloning of the cells following drug treatment allows a quantitative determination of the number of surviving cells.
Serum stimulated growth: NIH3T3 cells stop growing and enter quiescence when serum is reduced in the medium to 0.3%, so long as they are at a sufficient density on the plate. […] The drug to be analyzed is added for 3 hours at various times following serum addition, and then washed off. […]

[6] = tested on: Lewis lung carcinoma tumors; assay: Cell cycle synchrony of Lewis lung carcinoma tumor cells (EDU labeling); type: in vivo, mouse; conditions: 9 injections separated by 10 hours, tumor-bearing C57Black mice
Protocol: All studies of tumor killing were performed exactly as described above for studies of cell cycle synchrony. Thus, 9 injections of topotecan were separated from one another by 10 hours in C57Black mice carrying a tumor of approximately 0.5 gm. EDU was injected into three different topotecan treated animals at 1 hour, 5 hour or 10 hours as a marker for DNA synthesis. A control tumor-bearing mouse received mock injections and was injected with EDU 5 hours after the final injection. […] together with normal gut tissue was collected and analyzed.

[7] = remark: listed apart in the source
Protocol: Analyses began with approximately 10% of the LD50 concentration. It was then escalated until overall toxicity to the animals was observed. The final concentration of topotecan injected was 0.33 mg/ml-0.2 mg/ml; 0.05-0.27 ml per injection (depending on the mouse strain and weight of the mouse). Following determination of general topotecan toxicity following multiple injections, it was necessary to determine if, as predicted, injections spaced apart by the length of the cell cycle would be less harmful to the animals.
[…] […] […] Thus, 9 injections at 8 hours, or 9 injections at 12 hours, 14 hours, 16 hours or 20 hours were performed, and the effect of these upon the animals determined. The 8 hour time was selected to definitely be shorter than the cell cycle, and 20 hours to be longer than the cell cycle, so that negative controls would be built into the protocol.

[8] = tested on: DNA synthesis; assay: Rate of DNA synthesis after topotecan (observation of the inventor)
Text: Topotecan treatments would be removed and followed at various times thereafter with an BRDU treatment.

[9] = injections every 24 hours for up to 20 days

Compound: O=c1[nH]c(=O)n([C@H]2C[C@H](O)[C@@H](CO)O2)cc1Br [BRDU, Bromodeoxyuridine]
- time after injection within which replicating cells are labelled (rapid removal from circulation) [1]: ≤ 1 h

Compound: C#Cc1cn([C@H]2C[C@H](O)[C@@H](CO)O2)c(=O)[nH]c1=O [EDU, 5-Ethynyl-2′-deoxyuridine]
- ability to induce cell cycle synchrony in the mouse gut [2]: shown to induce cell cycle synchrony
- inhibition of Lewis lung carcinoma tumor growth [3]: reduction in tumor growth; also recorded: highly efficient in blocking tumor growth
- toxicity to animals ([4]; EDU injections): not highly toxic to animals

Compound: COc1cc([C@@H]2c3cc4c(cc3[C@@H](O[C@@H]3O[C@@H]5CO[C@@H](C)O[C@H]5[C@H](O)[C@H]3O)[C@H]3COC(=O)[C@H]23)OCO4)cc(OC)c1O [Etoposide]
- width of concentration range selectively toxic for S phase cells [5]: 10 fold

Compound: N.N.[Cl][Pt][Cl] [cisplatin]
- cell cycle synchrony of injected animals' cells ([2]; repeated injections, any time between injections): at no time were the cisplatin injected cells synchronous
- delay of tumor formation ([3]; daily injections): less than 3 days

Compound: CC[C@@]1(O)C(=O)OCc2c1cc1n(c2=O)Cc2cc3c(CN(C)C)c(O)ccc3nc2-1 [topotecan]
- cell cycle synchrony of gut epithelial cells ([2]; 9 injections every 10 hours): complete cell cycle synchrony
- cell cycle phase / EDU incorporation of crypt cells ([2]; 9 injections every 10 hours, 4 to 8 hours following the final injection): in S phase; also recorded: high levels of EDU incorporation
- cell cycle phase / EDU incorporation of crypt cells ([2]; 9 injections every 10 hours, 2 hours and 10 hours following the final injection): low levels of EDU incorporation; also recorded: not synthesizing DNA
- cyclin D1 expression in crypt cells ([2]; 9 injections every 10 hours, 5 hours after the final injection): greatly reduced proportion of the cells
- gut cells in S phase (EDU incorporation) ([2]; 9 injections every 10 hours, 5 hours following the final injection): essentially all the cells were in S phase; also recorded: efficiently labeled with EDU
- gut cells in S phase (EDU incorporation) ([2]; 9 injections every 10 hours, 10 hours following the final injection): none of the cells were in S phase; also recorded: very little EDU labeling
- cyclin D1 expression in crypt cells ([2]; 9 injections every 10 hours, immediately after or 10 hours following the final injection): expressed at high levels
- gut cells in S phase (EDU incorporation) ([2]; 9 injections every 10 hours, immediately following the final injection): no cells were in S phase
- gut morphology, EDU incorporation and synchrony of crypt cells ([2]; 9 injections separated by 9 hours): unhealthy gut morphology and few gut cells able to incorporate EDU; also recorded: no evidence of cell cycle synchrony
- cell cycle synchrony of normal gut cells in tumor-bearing animals ([2]; 9 injections separated by 10 hours, C57Black mice with Lewis lung carcinoma): induced cell cycle synchrony; also recorded: have been synchronized
- synchronization of gut tissues ([2]; 9 injections separated by times other than every 10 hours): In no case were the tissues synchronized
- ability to induce cell cycle synchrony in the mouse gut [2]: shown to induce cell cycle synchrony
- cell cycle synchrony of gut cells ([2]; 0.20 ml of 0.33 mg/ml or 0.20 mg/ml): almost complete
- cell cycle synchrony of gut cells ([2]; injected concentration 0.12 mg/ml): very little if any synchrony
- cell cycle synchrony of the gut [2, 9]: cell cycle synchrony of the gut was observed
- crypt cell division interval [2, 9]: 12 h
- toxicity to gut tissue ([2]; mouse, in vivo): Even greater toxicity
- cell cycle synchrony of tumor cells (EDU labeling at 1, 5, 10 hours) [6]: had not been synchronized
- inhibition of tumor appearance, longer than in untreated animals ([3]; Cell Cycle Therapy with injections every 10 hours 40 minutes and rest periods): 7 to 12 days
- inhibition of Lewis lung carcinoma tumor growth [3]: dramatically inhibited; also recorded: highly efficient in blocking tumor growth
- tumor growth compared to the control group ([3]; FIG. 14B, both topotecan treatments (Cell Cycle and Daily)): dramatic decreases in tumor growth
- reduction of tumor size ([3]; Lewis lung carcinoma, any treatment protocol tested): never been found in these studies to reduce tumor size
- average tumor size relative to PBS treated animals ([3]; either protocol (Cell Cycle or daily), 9.5 days): ¼
- tumor killing [3, 9]: tumor killing was enhanced
- total amount of drug tolerated by the animals ([7]; 4 injections every 10 hours separated by 40 hours without injection): increased
- ability of animals to survive repeated injections ([7]; 9 injections at 8, 12, 14, 16 or 20 hours between injections): had to be euthanized
- injection spacing best tolerated ([4]; 9 injections, spacings 9 h 30 min to 11 h 20 min, weight over next 10 days, C57Bl/6 mice): 10 hours 40 minutes
- percent weight loss, injections separated by cell cycle length compared to daily injections ([4]; mouse, in vivo): dramatically reduced
- toxicity on continued injections ([4]; mouse, in vivo): without developing significant toxicity
- effect on rate of DNA synthesis [8]: dramatically reduces the rate of DNA synthesis
